Drawing on US20240294508A1, “RIP1 MODULATORS INCLUDING AZETIDINE CYCLIC UREAS, PREPARATIONS, AND USES THEREOF” (SIRONAX LTD., priority 2021, published 2024), this text covers EC50 for 18 compounds.

Each structure is given as a SMILES string.

The subject of the test is HT-29 cells. Briefly: HT29 cells 0FBS assay in vitro: TNF-α/SMAC mimetic/zVAD-FMK induced necroptosis, CellTiter-Glo cell viability (RIP1 inhibitory activity). It counts as cell-based. The settings on record: Homo sapiens, FBS free medium, TNF-α (10 ng/ml) + SMAC mimetic (6 uM) + zVAD-FMK (10 μM), 20 hours, geometric mean EC50. An excerpt:
Protocol for HT29 Cells 0FBS Assay In Vitro
• Cell line: HT-29 (ATCC® HTB-38™) • Culture medium: McCOY's 5A, Gibco, Cat No. 16600-082 • FBS, Gibco, Cat No. 10099-141C • Trypsin: Gibco, Cat No. 25200-056 • DMSO: Sigma, Cat No. 67-68-5, 1L • Assay plate: Corning #3903 • Compound dilution plate: Corning #3357 • Inducers: TNFα, GenScript, Cat No. Z01001-50, • SmacM, Cat. No., HY-15989, MedChemExpress (MCE) • Z_VAD FMK, TargetMol, T6013 • Cell Titer-Glo® Luminescent Cell Viability Assay Kit: Promega, Cat No. G7573 • EnVision: PerkinElmer, 2105-0010
2. Cell Seeding of HT-29 Cells
1) HT-29 cells were checked every day to make sure they are healthy and growing as expected. They were split sub-culturing when were approximately 80% confluent.
2) First pre-warm the culture medium of McCOY's 5A medium (Gibco, Cat No. 16600-082) with 10% FBS (Gibco, Cat No. 10099-141C) in 37° C. water bath for at least 30 min.
3) Growing cells to desired level of confluency 80% in a T75 flask, aspirate the medium, and wash with warm PBS two times.
4) Add 2-3 ml fresh warm trypsin (Gibco, Cat No. 25200-056) solution. Transfer the flask to a 37° C. incubator.
5) After 5 minutes, tap the side of the flask, and examine the flask under a microscope for lifting. If necessary, return the cells to the incubator for an additional 5-10 minutes, with occasional tapping, until lifting is complete.
6) Quickly neutralize the trypsin reaction by adding 6-9 ml cell culture medium, then transfer the cells to sterile 15 ml conical tubes. Pellet the cells by centrifugation at 300×g for 7 minutes, then decant the supernatant.
7) Resuspend the cells in fresh cell culture medium. Do cell counting with hemocytometer.
8) Seed 100 μl of 5,000 cells into each well of the sterile 96-well cell culture plate (Corning 3903) and culture overnight at 37° C. with 5% CO2.
3. Compounds Titration and Treatment of HT-29 Cells
1) All batches of compounds (CPDs0 (e.g., compound 1-169) were dissolved in DMSO (Dimethyl sulfoxide) as 20 mM stock solution.
2) Take 3 ul 20 mM stock solution of CPDs to […] DMSO and mix well, continue the titration ratio of 1:3 (20 ul CPDs+40 ul DMSO), e.g., to give solutions of CPDS at 6.6 mM, 2.2 mM, etc., till the 10 points end.
3) Take out assay plates with HT-29 cells from incubator, remove all culture medium then wash 1 time with 1×PBS, and change fresh McCOY's 5A medium of FBS free with a cocktail of TNF-α (10 ng/ml), the SMAC mimetic (6 uM) and zVAD-FMK (10 μM) to stimulate the HT-29 cells to increase pRIPK1 levels and necroptosis.
4) Add 0.5 μL of the diluted compound to the corresponding 96-well assay plates.
5) Incubate the assay plates for 20 hours at 37° C. with 5% CO2.
4. Performing Cell Viability Detection of HT-29 Cells after Treated with Compounds
1) The CellTiter-Glo® Luminescent Cell Viability Assay was employed to detect the ATP levels of viable HT-29 cells.
2) Equilibrate the CellTiter-Glo® buffer and the lyophilized substrate to room temperature prior to use.
3) Resuspend the CellTiter-Glo® substrate with CellTiter-Glo® buffer, mix by gently vortexing to obtain a homogeneous solution.
4) Pipette 20 μl the enzyme/substrate mixture by multi-channel pipette into the 96-well assay plates from step 5) under the Compounds titration and treatment stage.
5) Place the plates on an orbital shaker and mix the contents for 3 minutes to induce cell lysis.
6) Then allow the plates to incubate at room temperature for 10 minutes to stabilize luminescent signal.
7) Read and record luminescence signal with EnVision.
8) The geometric mean EC50 of the compounds were calculated from 10 points response dose with duplicate. In Table 2, activity is provided as follows: +++=0.1 nM≤EC50<100 nM; ++=100 nM≤EC5 1000 nM; […].
As to `Cn1ncc(C(N)=O)c1-c1cc(OC2CN(C(=O)N3N=CC[C@H]3c3cc(F)cc(C#N)c3)C2)c(F)cn1` [Compound 10, (S)-5-(4-((1-(5-(3-cyano-5-fluorophenyl)-4,5-dihydro-1H-pyrazole-1-carbonyl)azetidin-3-yl)oxy)-5-fluoropyridin-2-yl)-1-methyl-1H-pyrazole-4-carboxamide], the EC50 fell in the range of 100 to 1000 nM.
Take `Cc1cnn(C)c1-c1cc(OC2CN(C(=O)C3=NNCC3c3cc(F)cc(F)c3)C2)c(F)cn1` (stereo not drawn) [Compound 161, (4-(3,5-difluorophenyl)-4,5-dihydro-1H-pyrazol-3-yl)(3-((2-(1,4-dimethyl-1H-pyrazol-5-yl)-5-fluoropyridin-4-yl)oxy)azetidin-1-yl)methanone]: the EC50 was in the range of 0.1 to 100 nM.
The figure for `Cc1cnn(C)c1-c1ccc(F)c(OC2CN(C(=O)N3N=CC[C@H]3c3cc(F)cc(C#N)c3)C2)n1` [Compound 53, (S)-3-(1-(3-((6-(1,4-dimethyl-1H-pyrazol-5-yl)-3-fluoropyridin-2-yl)oxy)azetidine-1-carbonyl)-4,5-dihydro-1H-pyrazol-5-yl)-5-fluorobenzonitrile] is 0.1 to 100 nM.
The result for `Cc1nn(-c2cc(OC3CN(C(=O)N4N=CC[C@H]4c4cc(F)cc(F)c4F)C3)c(F)cn2)c(C)c1S(N)(=O)=O` [Compound 124, (S)-1-(5-fluoro-4-((1-(5-(2,3,5-trifluorophenyl)-4,5-dihydro-1H-pyrazole-1-carbonyl)azetidin-3-yl)oxy)pyridin-2-yl)-3,5-dimethyl-1H-pyrazole-4-sulfonamide] reads 0.1 to 100 nM; that for `Cc1nn(-c2cc(OC3CN(C(=O)N4N=CC[C@H]4c4cc(F)cc(C#N)c4)C3)c(F)cn2)c(C)c1C(=O)NC1COC1` [Compound 85, (S)-1-(4-((1-(5-(3-cyano-5-fluorophenyl)-4,5-dihydro-1H-pyrazole-1-carbonyl)azetidin-3-yl)oxy)-5-fluoropyridin-2-yl)-3,5-dimethyl-N-(oxetan-3-yl)-1H-pyrazole-4-carboxamide], 0.1 to 100 nM.
As for `Cn1nccc1-c1cc(OC2CN(C(=O)N3N=CC[C@H]3c3cncc(F)c3)C2)c(F)cn1` [Compound 27, (S)-(3-((5-fluoro-2-(1-methyl-1H-pyrazol-5-yl)pyridin-4-yl)oxy)azetidin-1-yl)(5-(5-fluoropyridin-3-yl)-4,5-dihydro-1H-pyrazol-1-yl)methanone], the concentration for a half-maximal effect (EC50) is 0.1 to 100 nM.
The figure for `Cc1nn(-c2cc(OC3CN(C(=O)N4N=CC[C@@H]4c4cc(F)cc(F)c4F)C3)c(F)cn2)c(C)c1C(N)=O` [Compound 103, (R)-1-(5-fluoro-4-((1-(5-(2,3,5-trifluorophenyl)-4,5-dihydro-1H-pyrazole-1-carbonyl)azetidin-3-yl)oxy)pyridin-2-yl)-3,5-dimethyl-1H-pyrazole-4-carboxamide] is 1000 to 10000 nM.
On to `Cc1nn(-c2cc(OC3CN(C(=O)N4N=CC[C@H]4c4ccccc4)C3)c(F)cn2)c(C)c1C(=O)NCCO` [Compound 74, (S)-1-(5-fluoro-4-((1-(5-phenyl-4,5-dihydro-1H-pyrazole-1-carbonyl)azetidin-3-yl)oxy)pyridin-2-yl)-N-(2-hydroxyethyl)-3,5-dimethyl-1H-pyrazole-4-carboxamide], for which the EC50 was 0.1 to 100 nM.
The figure for `Cc1nn(-c2cc(OC3CN(C(=O)N4N=CC[C@H]4c4cc(F)cc(C#N)c4)C3)c(F)cn2)c(C)c1C(=O)NC1CC1` [Compound 86, (S)-1-(4-((1-(5-(3-cyano-5-fluorophenyl)-4,5-dihydro-1H-pyrazole-1-carbonyl)azetidin-3-yl)oxy)-5-fluoropyridin-2-yl)-N-cyclopropyl-3,5-dimethyl-1H-pyrazole-4-carboxamide] is 0.1 to 100 nM; for `Cc1ncc(C2CC=NN2C(=O)N2CC(Oc3cc(-c4c(C)cnn4C)ncc3F)C2)s1` (stereo not drawn) [Compound 88, (3-((2-(1,4-dimethyl-1H-pyrazol-5-yl)-5-fluoropyridin-4-yl)oxy)azetidin-1-yl)(5-(2-methylthiazol-5-yl)-4,5-dihydro-1H-pyrazol-1-yl)methanone] it is 0.1 to 100 nM.
The result for `Cc1cnn(C)c1-c1cc(OC2CN(C(=O)N3N=CC[C@H]3c3cncc(C#N)c3)C2)c(F)cn1` [Compound 42, (S)-5-(1-(3-((2-(1,4-dimethyl-1H-pyrazol-5-yl)-5-fluoropyridin-4-yl)oxy)azetidine-1-carbonyl)-4,5-dihydro-1H-pyrazol-5-yl)nicotinonitrile] reads 0.1 to 100 nM; that for `Cn1cccc(-c2cc(OC3CN(C(=O)N4N=CC[C@H]4c4cc(F)cc(F)c4)C3)c(F)cn2)c1=O` (stereo in doubt) [Compound 169, 4-((1-(5-(3,5-difluorophenyl)-4,5-dihydro-1H-pyrazole-1-carbonyl)azetidin-3-yl)oxy)-5-fluoro-1′-methyl-[2,3′-bipyridin]-2′(1′H)-one], 100 to 1000 nM.
The result for `Cn1ncc(F)c1-c1cc(OC2CN(C(=O)N3N=CC[C@H]3c3cc(F)cc(C#N)c3)C2)c(F)cn1` [Compound 5, (S)-3-fluoro-5-(1-(3-((5-fluoro-2-(4-fluoro-1-methyl-1H-pyrazol-5-yl)pyridin-4-yl)oxy)azetidine-1-carbonyl)-4,5-dihydro-1H-pyrazol-5-yl)benzonitrile] reads 0.1 to 100 nM; that for `Cc1nn(-c2cc(OC3CN(C(=O)N4N=CC[C@H]4c4cc(F)cc(F)c4F)C3)c(F)cn2)c(C)c1C(N)=O` [Compound 102, (S)-1-(5-fluoro-4-((1-(5-(2,3,5-trifluorophenyl)-4,5-dihydro-1H-pyrazole-1-carbonyl)azetidin-3-yl)oxy)pyridin-2-yl)-3,5-dimethyl-1H-pyrazole-4-carboxamide], 0.1 to 100 nM; that for `Cn1ncc(C#N)c1-c1cc(OC2CN(C(=O)N3N=CC[C@H]3c3cc(F)cc(C#N)c3)C2)c(F)cn1` [Compound 9, (S)-5-(4-((1-(5-(3-cyano-5-fluorophenyl)-4,5-dihydro-1H-pyrazole-1-carbonyl)azetidin-3-yl)oxy)-5-fluoropyridin-2-yl)-1-methyl-1H-pyrazole-4-carbonitrile], 0.1 to 100 nM.
As for `Cc1ncc(C2CC=NN2C(=O)N2CC(Oc3nc(-c4c(C)cnn4C)c(F)cc3F)C2)s1` (stereo not drawn) [Compound 123, (3-((6-(1,4-dimethyl-1H-pyrazol-5-yl)-3,5-difluoropyridin-2-yl)oxy)azetidin-1-yl)(5-(2-methylthiazol-5-yl)-4,5-dihydro-1H-pyrazol-1-yl)methanone], the EC50 is 0.1 to 100 nM.
The result for `Cc1c(N)nn(C)c1-c1cc(OC2CN(C(=O)N3N=CC[C@H]3c3cncc(C#N)c3)C2)c(F)cn1` [Compound 62, (S)-5-(1-(3-((2-(3-amino-1,4-dimethyl-1H-pyrazol-5-yl)-5-fluoropyridin-4-yl)oxy)azetidine-1-carbonyl)-4,5-dihydro-1H-pyrazol-5-yl)nicotinonitrile] reads 0.1 to 100 nM.
For `Cc1nn(-c2cc(OC3CN(C(=O)N4N=CCC4c4cc(F)cc(F)c4F)C3)c(F)cn2)c(C)c1S(N)(=O)=O` (stereo not drawn) [Compound 112, 1-(5-fluoro-4-((1-(5-(2,3,5-trifluorophenyl)-4,5-dihydro-1H-pyrazole-1-carbonyl)azetidin-3-yl)oxy)pyridin-2-yl)-3,5-dimethyl-1H-pyrazole-4-sulfonamide], the EC50 was in the range of 0.1 to 100 nM.
